Assay [1] can be described thus: Inhibition of porcine succinate-cytochrome c reductase using succinate and cytochrome c as substrate by spectrophotometric analysis. On the set-up: species or system Sus scrofa.
The species entered for assay [2] is Sus scrofa. The assay can be described thus: Inhibition of porcine succinate-cytochrome c reductase at 10 uM using succinate and cytochrome c as substrate by spectrophotometric analysis relative to control.
The species entered for assay [3] is Sus scrofa. The assay is described as follows: Inhibition of porcine succinate-cytochrome c reductase complex 2 at 10 uM using succinate and dichlorophenolindophenol as substrate by spectrophotometric analysis relative to control.
For assay [4], the species on record is Sus scrofa. The assay can be described thus: Inhibition of porcine succinate-cytochrome c reductase complex 3 at 10 uM using decylubiquinol and cytochrome c as substrate by spectrophotometric analysis relative to control.

Data on 26 compounds can be found in ChEMBL document CHEMBL4184314, “Synthesis of new 4-aryloxy-N-arylanilines and their inhibitory activities against succinate-cytochrome c reductase” (Bioorg Med Chem Lett, 2018).

In assay [1], `Fc1cccc(Oc2ccc(Nc3ccccc3)cc2)c1F` returned a 50% inhibitory concentration (IC50) of 1450 nM.

In the case of `Clc1cc(Cl)c(Oc2c(Cl)cc(Nc3ccccc3)cc2Cl)c(Cl)c1`, in assay [1], the IC50 turned out to be 21 nM. In addition, the inhibition in the assay listed under Sus scrofa [2] turned out to be 89%; in the assay listed under Sus scrofa [3] it was 37%; in the assay filed under Sus scrofa [4] it was 13%.

`Clc1cc(Nc2ccccc2)cc(Cl)c1Oc1ccc2ccccc2c1` had an IC50 in assay [1] of 30 nM. Also, the inhibition in the assay listed under Sus scrofa [2] was 78%; in the assay listed under Sus scrofa [3], 42%; in the assay filed under Sus scrofa [4], 15%.

In turn, `COc1ccc(Oc2ccc(Nc3ccccc3)cc2)cc1` displayed an IC50 in assay [1] above 10000 nM.

As for `Fc1ccccc1Oc1ccc(Nc2ccccc2)cc1`, the IC50 in assay [1] was above 10000 nM.

`N#Cc1ccccc1Oc1ccc(Nc2ccccc2)cc1`: in assay [1], the IC50 is above 10000 nM.

`Clc1ccc(Oc2c(Cl)cc(Nc3ccccc3)cc2Cl)c(Cl)c1`: the IC50 in assay [1] amounted to 41 nM.

In assay [1], `Clc1ccc(Nc2ccc(Oc3ccccc3)cc2)cc1` yielded an IC50 of 464 nM.

The compound `Cc1ccccc1Nc1ccc(Oc2ccccc2)cc1` displayed an IC50 in assay [1] above 10000 nM.

`CO/C=C(\C(=O)OC)c1ccccc1Oc1cc(Oc2ccccc2C#N)ncn1` [Azoxystrobin] came in with an IC50 in assay [1] of 287 nM. The inhibition in the assay listed under Sus scrofa [2] was 99%; in the assay listed under Sus scrofa [3] it was 23%; in the assay filed under Sus scrofa [4], 92%.

Turning to `Brc1cc(Nc2ccccc2)ccc1Oc1ccccc1`, in assay [1], the IC50 was found to be 323 nM.

In assay [1], `Cc1ccc(Nc2ccc(Oc3ccccc3)cc2)cc1` yielded an IC50 above 10000 nM.

In assay [1], `Cc1cccc(Nc2ccc(Oc3ccccc3)cc2)c1` displayed a 50% inhibitory concentration (IC50) above 10000 nM.

`FC(F)(F)c1ccc(Nc2ccc(Oc3ccccc3)cc2)cc1` had an IC50 in assay [1] of 201 nM.

As to `c1ccc(COc2ccc(Oc3ccc(Nc4ccccc4)cc3)cc2)cc1`, the IC50 in assay [1] was above 10000 nM.

With `FC(F)(F)c1cccc(Nc2ccc(Oc3ccccc3)cc2)c1`, the IC50 in assay [1] came to 362 nM.

In the case of `Brc1ccccc1Oc1ccc(Nc2ccccc2)cc1`, the IC50 in assay [1] was above 10000 nM.

For `Clc1ccc(Oc2ccc(Nc3ccccc3)cc2Cl)c(Cl)c1`, half-maximal inhibition in assay [1] (IC50) required 43 nM.

Compound `CC(C)CC(C)c1sccc1NC(=O)c1cn(C)nc1C(F)(F)F` (stereo not drawn) [PENTHIOPYRAD] returned an IC50 in assay [1] of 1320 nM. The inhibition in the assay filed under Sus scrofa [2] is 82%; in the assay filed under Sus scrofa [3], 90%; in the assay filed under Sus scrofa [4] it was below 10%.

`Clc1cccc(Nc2ccc(Oc3ccccc3)cc2)c1` returned an IC50 in assay [1] above 10000 nM.

Turning to `Clc1ccc(Oc2ccc(Nc3ccccc3)cc2)c(Cl)c1`, the IC50 in assay [1] stood at 172 nM.

In assay [1], `c1ccc(Nc2ccc(Oc3ccccc3)cc2)cc1` yielded an IC50 above 10000 nM.

Turning to `CC(C)(C)c1ccc(Nc2ccc(Oc3ccccc3)cc2)cc1`, the IC50 in assay [1] is above 10000 nM.

As for `Fc1cccc(Nc2ccc(Oc3ccccc3)cc2)c1`, the IC50 in assay [1] came to 723 nM.

Regarding `Fc1ccc(Br)cc1Oc1ccc(Nc2ccccc2)cc1`, in assay [1], the IC50 is above 10000 nM.

Regarding `Fc1ccc(Nc2ccc(Oc3ccccc3)cc2)cc1`, in assay [1], the IC50 is above 10000 nM.

In general, IC50 refers to the concentration that gives 50% inhibition. A low value points to greater potency in that assay. By inhibition is commonly meant the percentage by which the read-out fell short of the control.
